Where a SMILES comes first, the peptide text is derived from it. Bridges are numbered along the chain shown (N, C = ends). [ ]: non-standard residue; d: D form.
Key:
[1] = Toxicity in Vero cells (MTT assay and manual cell counting); assay type: cell-based; conditions: ‡ non toxic at 1000 μM, read-out: Ctox50
Description: (§1) The toxicity of the beta hairpin peptides was assessed with the MTT (3-(4,5-dimethylthiazol-2-yl)-2,5-diphenyltetrazolium bromide, Invitrogen, USA) assay (Mosmann, T. (1983). J. Immunol. Methods 65, 55-63.), and by manual cell counting using a Neubauer chamber. Ninety-six well plates (Costar, USA) were seeded with 200 μL/well of a suspension containing Vero cells at 1×10^5 cells/mL and incubated until the monolayers reached approximately 90% confluence, typically for 18-24 h. After washing the cells twice with DMEM (Dulbecco's Modified Eagle Medium) medium, 50 μL/well were added of the peptide or additive dilutions to be evaluated (Triton ^X-100™ dissolved in PBS was used as positive toxicity control) and the plates were incubated at 37° C. under a 5% CO2 atmosphere for 2 or 24 h. Two different procedures were then employed to measure toxicity: • a) A 2 mg/mL solution of MTT in PBS was added (50 μL/well) and the plates were incubated for further 4 h at 37° C., 5% CO2. The medium was then removed, and 100 μL/well of DMSO were then added to solubilize formazan precipitates. Finally, the optical density (OD) of the supernatants at a wavelength of 540 nm was measured using a plate reader (Sensident Scan™, Merck, Germany). • b) The plates were washed with 200 μL/well of DMEM medium and then a trypsin solution (Sigma, USA) was added at 50 μL/well. After inactivating the trypsin by adding 150 μL/well of DMEM supplemented with 10% FBS, the cells were counted using the Trypan Blue (Gibco, USA) vital stain. The data were processed using the statistical software package Prism v5.3 (GraphPad, USA), using non-linear regression to fit them to a log10 (concentration) vs response curve.

[2] = tested on: DENV serotype 2 (NIBSC code S16803); experiment: Plaque reduction assay in Vero cells, DENV2; assay type: cell-based, Dengue virus; conditions: DENV2, plaque reduction; NA = no detectable activity at concentrations lower than or equal to 100 μM; read-out: IC50, antiviral activity in Vero cells (50% inhibitory activity)
Description: The cells were grown in 24 well plates until the monolayer reached approximately 90% confluence, after which they were washed twice with MEM medium without Fetal Bovine Serum (FBS). Then, peptide dilutions were added and the cell-peptide mixtures were incubated typically for 1 hour at 37° C., followed by the addition of a DENV serotype 2 preparation (NIBSC code S16803) at a multiplicity of infection (m.o.i.) of 0.001. The cells were then incubated for 1 hour at 37° C., and once the period of incubation with the viral inoculum concluded, were washed again to remove unbound virions and incubated for 5 days at 37° C. in high density medium (MEM supplemented with non-essential amino acids, 1% FBS, 1% carboxymethylcellulose) in order to let viral plaques form. Afterwards, the cells were stained with 0.1% Naphtol Blue Black in 0.15 M sodium acetate. Two replicates per experimental point were used in each assay, and three independent determinations were performed for each sample.
Next, it was decided to compare the antiviral activity of peptides PHB4 and HDIII3CL against all four DENV serotypes, with the objective of comparing their respective IC50 values. This comparison was performed with plaque reduction assays on Vero cells, adding the viral inoculum for each serotype (DENV1, NIBSC code West Pac 74, DENV2, NIBSC, code S16803; DENV3, NIBSC, code CH53489; DENV 4, NIBSC code TVP360) at a m.o.i. of 0.001.

sLRP1-CIV = target: T1, sLRP1-CIV (Homo sapiens, UniProt Q07954); experiment: Biacore (SPR) binding to immobilized sLRP1-CIV; conditions: peptides at 20 μM
T1 construct: purchased R&D Systems, USA
Description: The interaction of the beta hairpin peptides with soluble fragments of the LRP1 receptor was studied by Surface Plasmon Resonance (SPR), using a Biacore X unit. In this technique, one of the interaction partners to be studied is immobilized on the surface of a chip, and the other interaction partner is dissolved in a solution that runs through the measurement cell on top of the interaction surface, under conditions of controlled flow. The association and dissociation of interacting partners is measured in resonance units (RU) and plotted, as a function of time, on charts known as ‘sensorgrams’. SPR, therefore, enables the experimenter to obtain detailed information about the interaction without having to label either interaction partner.
In this example, one channel of a CM5 chip (GE Healthcare, USA) was used to immobilize protein sLRP1-CIV on its surface at high density (see Table 6) and recombinant Human Serum Albumin (rHSA, Sigma-Aldrich, USA) was immobilized on the other channel.
Although it was decided to immobilize sLRP1-CIV at high density because these conditions make easier the detection of any potential interactions with compounds whose molecular weight is lower than that of average proteins (such as the peptides this experiment is intended to study), it must be stressed that in high-density surfaces, mass transfer limitations and the possibility of multivalent binding make difficult the accurate determination of kinetic constants. Therefore, and in order to characterize in greater detail the sLRP1-CIV binding surface, different RAP dilutions (0.6-20 μM) were loaded, and RU were registered under conditions of interaction equilibria (250 sec, see FIG. 13B). […] The data also indicate that immobilized sLRP1-CIV faithfully reproduces the previously reported characteristics of the LRP1-RAP interaction.
The binding of beta hairpin peptides to sLRP1-CIV was studied by loading 20 μM dilutions in running buffer of the different peptide variants onto the sLRP1-CIV chip characterized above. The high strength of the resulting signals is consistent with the binding of aggregated, rather than monomeric forms of the peptides. Therefore, the observed variations between different peptides may reflect either differences in the affinity of unitary peptide interactions or differences in aggregation numbers and/or geometries that lead to variations in the number of peptide units able to simultaneously engage immobilized sLRP1-CIV molecules in a multivalent manner. […] The difference between peptides HDIII3CL2 and HDIII3CL is that the former has an additional C-terminal lysine and has, therefore, a stronger cationic character, which may facilitate additional electrostatic interactions with the negatively charged LRP1 receptor.

Vero cells = experiment: Toxicity in Vero cells (MTT assay and manual cell counting); assay type: cell-based; conditions: ‡ non toxic at 1000 μM
Description: as §1

CC(C)[C@@H]1NC(=O)[C@H](CCCCN)NC(=O)[C@H](Cc2c[nH]c3ccccc23)NC(=O)[C@H](CCCCN)NC(=O)[C@H]2CCCN2C(=O)[C@H](CCCNC(=N)N)NC(=O)[C@H]([C@@H](C)O)NC(=O)[C@H](Cc2c[nH]c3ccccc23)NC(=O)[C@H](Cc2ccc(O)cc2)NC(=O)[C@H](C(C)C)NC(=O)[C@@H](N)CSSC[C@@H](C(=O)N[C@@H](CCCCN)C(=O)N[C@@H](CCCCN)C(=O)N[C@@H](CCCCN)C(N)=O)NC(=O)[C@H](Cc2c[nH]c3ccccc23)NC(=O)[C@H](CC(N)=O)NC1=O [PHB2] (H-CVYWTR[dP]KWKVNWCKKK-NH2; disulfide 1-14)
CC50 [1]: 85 µM | IC50 [2]: 12 µM

CC[C@H](C)[C@@H]1NC(=O)[C@H](Cc2ccccc2)NC(=O)[C@H](Cc2c[nH]c3ccccc23)NC(=O)[C@H](CC(N)=O)NC(=O)[C@H](Cc2ccc(O)cc2)NC(=O)[C@H](CCCCN)NC(=O)[C@H](CCCCN)NC(=O)CNC(=O)[C@H](CC(N)=O)NC(=O)[C@H]([C@@H](C)CC)NC(=O)[C@H]([C@@H](C)O)NC(=O)[C@H](C(C)C)NC(=O)[C@H](CC(N)=O)NC(=O)[C@H](C(C)C)NC(=O)[C@H](CCC(=O)O)NC(=O)[C@H]([C@@H](C)CC)NC(=O)[C@@H](N)CSSC[C@@H](C(=O)N[C@@H](CCCCN)C(=O)N[C@@H](CCCCN)C(=O)N[C@@H](CCCCN)C(N)=O)NC1=O [PHB8] (H-CIEVNVTINGKKYNWFICKKK-NH2; disulfide 1-18)
CC50 [1]: 300 µM | IC50 [2]: 15 µM

CC[C@H](C)[C@@H]1NC(=O)[C@H](Cc2ccccc2)NC(=O)[C@H](Cc2c[nH]c3ccccc23)NC(=O)[C@H](CC(N)=O)NC(=O)[C@H](Cc2ccc(O)cc2)NC(=O)[C@H](CCCCN)NC(=O)[C@H](CCCCN)NC(=O)CNC(=O)[C@H](CC(N)=O)NC(=O)[C@H]([C@@H](C)CC)NC(=O)[C@H]([C@@H](C)O)NC(=O)[C@H](C(C)C)NC(=O)[C@H](Cc2ccc(O)cc2)NC(=O)[C@H](C(C)C)NC(=O)[C@H](CCC(=O)O)NC(=O)[C@H]([C@@H](C)CC)NC(=O)[C@@H](N)CSSC[C@@H](C(=O)N[C@@H](CCCCN)C(=O)N[C@@H](CCCCN)C(=O)N[C@@H](CCCCN)C(N)=O)NC1=O [PHB9] (H-CIEVYVTINGKKYNWFICKKK-NH2; disulfide 1-18)
CC50 [1]: 216 µM | IC50 [2]: 7 µM

HDIII3CLC-
Binding to sLRP1-CIV by SPR, in words (sLRP1-CIV): at most marginal interaction

CC[C@H](C)[C@@H]1NC(=O)CNC(=O)[C@H]([C@@H](C)CC)NC(=O)[C@H](C(C)C)NC(=O)[C@H]([C@@H](C)CC)NC(=O)[C@H](CC(N)=O)NC(=O)[C@H](CO)NC(=O)[C@@H](N)CSSC[C@@H](C(=O)N[C@@H](CCCCN)C(=O)N[C@@H](CCCCN)C(=O)N[C@@H](CCCCN)C(N)=O)NC(=O)[C@H](Cc2c[nH]c3ccccc23)NC(=O)[C@H](CC(N)=O)NC(=O)[C@H]([C@@H](C)CC)NC(=O)[C@H](CCCCN)NC(=O)[C@H](CC(C)C)NC(=O)[C@H](C)NC(=O)[C@H](CCCCN)NC(=O)[C@H](CC(=O)O)NC(=O)CNC1=O [HDIII3CL2, reference compound] (H-CSNIVIGIGDKALKINWCKKK-NH2; disulfide 1-18)
CC50 [1]: 1000 µM | IC50 [2]: 20 µM

CC[C@H](C)[C@@H]1NC(=O)[C@H](Cc2ccccc2)NC(=O)[C@H](Cc2c[nH]c3ccccc23)NC(=O)[C@H](CC(N)=O)NC(=O)[C@H](C(C)C)NC(=O)[C@H](CCCCN)NC(=O)[C@H](CCCCN)NC(=O)[C@H](CC(=O)O)NC(=O)[C@H]2CCCN2C(=O)[C@H](CCC(=O)O)NC(=O)[C@H]([C@@H](C)O)NC(=O)[C@H](Cc2c[nH]c3ccccc23)NC(=O)[C@H](CC(N)=O)NC(=O)[C@H](C(C)C)NC(=O)[C@H](CCC(=O)O)NC(=O)[C@H]([C@@H](C)CC)NC(=O)[C@@H](N)CSSC[C@@H](C(=O)N[C@@H](CCCCN)C(=O)N[C@@H](CCCCN)C(=O)N[C@@H](CCCCN)C(N)=O)NC1=O [PHB3] (H-CIEVNWTE[dP]DKKVNWFICKKK-NH2; disulfide 1-18)
Ctox50 (Vero cells): >>1000^‡ μM | IC50 [2]: 17 µM

HDIII3CLK-
Binding to sLRP1-CIV by SPR, in words (sLRP1-CIV): detectable specific binding

CC(C)[C@H](NC(=O)[C@H](CC(N)=O)NC(=O)[C@H](Cc1c[nH]c2ccccc12)NC(=O)[C@@H](NC(=O)[C@H](Cc1c[nH]c2ccccc12)NC(=O)[C@H](CCCCN)NC(=O)[C@H](CC(N)=O)NC(=O)[C@@H](CCCCN)NC(=O)[C@H](CCC(=O)O)NC(=O)[C@H](Cc1c[nH]c2ccccc12)NC(=O)[C@H](CCCCN)NC(=O)[C@H](Cc1c[nH]c2ccccc12)NC(=O)[C@H](CC(N)=O)NC(=O)[C@H](Cc1c[nH]c2ccccc12)NC(=O)[C@@H](N)Cc1ccccc1)[C@@H](C)O)C(=O)N[C@@H](CCC(=O)O)C(=O)NCC(=O)NCC(=O)N[C@@H](CCCCN)C(=O)N[C@@H](CCCCN)C(=O)N[C@@H](CCCCN)C(N)=O [PHB5] (H-FWNWKWE[dK]NKWTWNVEGGKKK-NH2)
CC50 [1]: 259 µM | IC50 [2]: 17 µM

CC[C@H](C)[C@@H]1NC(=O)[C@H]([C@@H](C)O)NC(=O)[C@H](C(C)C)NC(=O)[C@H](CC(N)=O)NC(=O)[C@H](C(C)C)NC(=O)[C@@H](N)CSSC[C@@H](C(=O)N[C@@H](CCCCN)C(=O)N[C@@H](CCCCN)C(=O)N[C@@H](CCCCN)C(N)=O)NC(=O)[C@H](Cc2c[nH]c3ccccc23)NC(=O)[C@H](CC(N)=O)NC(=O)[C@H](Cc2ccc(O)cc2)NC(=O)[C@H](CCCCN)NC(=O)[C@H](CCCCN)NC(=O)CNC(=O)[C@H](CC(N)=O)NC1=O [PHB7] (H-CVNVTINGKKYNWCKKK-NH2; disulfide 1-14)
CC50 [1]: 1910 µM | IC50 [2]: 79 µM

HDIII3CLW-
Binding to sLRP1-CIV by SPR, in words (sLRP1-CIV): detectable specific binding

CC(C)[C@H](NC(=O)[C@H](CC(N)=O)NC(=O)[C@H](Cc1c[nH]c2ccccc12)NC(=O)[C@@H](NC(=O)[C@H](Cc1c[nH]c2ccccc12)NC(=O)[C@H](CCCCN)NC(=O)[C@H](CC(N)=O)NC(=O)[C@H]1CCCN1C(=O)[C@H](CCC(=O)O)NC(=O)[C@H](Cc1c[nH]c2ccccc12)NC(=O)[C@H](CCCCN)NC(=O)[C@H](Cc1c[nH]c2ccccc12)NC(=O)[C@H](CC(N)=O)NC(=O)[C@H](Cc1c[nH]c2ccccc12)NC(=O)[C@@H](N)Cc1ccccc1)[C@@H](C)O)C(=O)N[C@@H](CCC(=O)O)C(=O)NCC(=O)NCC(=O)N[C@@H](CCCCN)C(=O)N[C@@H](CCCCN)C(=O)N[C@@H](CCCCN)C(N)=O [PHB6] (H-FWNWKWE[dP]NKWTWNVEGGKKK-NH2)
CC50 [1]: 411 µM | IC50 [2]: 33 µM

From US9896482B2, “Beta hairpin peptides having antiviral properties against Dengue virus” (CENTRO DE INGENIERÍA GENÉTICA Y BIOTECNOLOGÍA, priority 2014, dated 2018)
